Patent US20160083429A1, “COMPOSITIONS AND METHODS FOR ENDOTOXIN NEUTRALIZATION” (Immunotrex Biologics, Inc., priority 2014, published 2016)

Experiments:
[1] = ESI-MS detection of peptide-Lipid-A complex formation; assay type: binding; conditions: CHL/MeOH/H2O solutions; D-Lipid-A 0.005 mg/mL
Description: In this example, electrospray ionization mass spectrometry experiments were carried out on Lipid-A (D-Lipid-A) and peptides WK-11, KK-12, KK-11 under a variety of solution and mass spectrometry conditions. Binding of D-Lipid-A to WK-11, KK-12, KK-11 peptides was observed by mass spectrometry methods, as quite abundant ion (LipidA-peptide) complexes were detected from CHL/MeOH/H2O solutions.
Materials: Three peptides KFFKKFFKFFKK (SEQ ID NO: 1; KK-12), WKKWWKKWWKK (SEQ ID NO: 2; WK-11), and KKKKFFFKFFK (SEQ ID NO: 3; KK-11) were ordered from a custom commercial synthesis. Diphosphoryl Lip-A (D-Lipid-A) (C94O25N2P2H178) was obtained from Sigma.
Chemicals: chloroform (CHL), methanol (MeOH), Water (H2O), triethylamine (TEA), ammonium acetate.
Instrumentation: Micro-TOF ESI-MS (Bruker Daltonics); Q-Star-XL nano-ESI-MS (AB-SCIEX).
Solubility studies were performed in order to optimize the solubility of both the peptides and diphosphoryl Lipid A. Solution conditions for electrospray ionization mass spectrometry experiments on diphosphoryl Lipid A and peptides were evaluated using (CHL)X(MeOH)Y(H2O)Z, where X=0-70%; Y=0-70%; and Z=0-95%.
In one experiment, Diphosphoryl Lipid A (0.005 mg/mL) and WK-11 (0.005 mg/mL) were dissolved in 70% CHL/30% MeOH/0.5% water and evaluated by ESI-MS. Electrospray ionization mass spectrometry (ESI-MS) of peptide WK-11 and Lipid-A and detection of complex formation is shown in FIG. 6. Single circles show fragments assigned to the peptide. Double circles show lipid A bound to peptide WK-11.
In another experiment, Diphosphoryl Lipid A (0.005 mg/mL) and KK-12 (0.005 mg/mL) were dissolved in 70% CHL/30% MeOH/0.5% water and evaluated by ESI-MS. Single circles show fragments assigned to the peptide. Double circles show lipid A bound to peptide KK-12.
In another experiment, Diphosphoryl Lipid A (0.005 mg/mL) and KK-11 (0.015 mg/mL) were dissolved in 30% CHL/68% MeOH/2% water and evaluated by ESI-MS. Single circles show fragments assigned to the peptide. Double circles show lipid A bound to peptide KK-11.

[2] = ESI-MS competition ranking of Lipid A-binding propensities of peptides; conditions: for relative binding affinity Ka with D-Lipid-A, competition KK-12 vs KK-11 / relative binding affinity Ka with D-Lipid-A, competition WK-11 vs KK-11 / relative binding affinity Ka with D-Lipid-A, competition WK-11 vs KK-12: 0.0032 mg/mL each peptide; for relative binding affinity Ka with D-Lipid-A, competition KK-12 vs KK-11: D-lipid-A 0.005 mg/mL; for relative binding affinity Ka with D-Lipid-A, competition WK-11 vs KK-11: increasing D-lipid-A, FIG. 20B; for relative binding affinity Ka with D-Lipid-A, competition WK-11 vs KK-11 / relative binding affinity Ka with D-Lipid-A, competition WK-11 vs KK-12: R-ratios; for rank order of relative binding affinities (Ka) to D-lipid-A, combined data of Example 4: combined competition data; for relative binding affinity Ka with D-Lipid-A, competition WK-11 vs KK-12: D-lipid-A 0.001-0.0050 mg/mL, FIG. 20A
Text: ESI-MS based methods were used to rank binding affinities of peptides WK-11, KK-12, and KK-11 to diphosphoryl lipid A in CHL/MeOH/H2O, 45%/55%/0.05%, unless otherwise specified.
Materials and Chemicals were the same as shown in Example 3.
Instrumentation included Micro-TOF ESI-MS (Bruker Daltonics); FT-ICR-MS NanoDrop-2000 UV-Vis Spectrophotometer.
A series of ESI-MS competition experiments were designed to determine relative binding intensities of peptide-lipid A complexes in ESI-MS while varying the concentration of the D-lipid-A.
Then, an equal concentration of both peptides was employed, while increasing the concentration of the D-lipid-A in three experiments, as shown in FIGS. 12-14. Double circles surround lipid-A bound to peptide WK-11 (“1”) or lipid-A bound to KK-12 (“2”).
Resultant signal intensities of peptides and their complexes with D-lipid-A were used to plot R-ratios, determined as in Eq. 1, against D-Lipid-A concentrations.
R═Itotal(peptide:Lipid)/Itotal(peptide) [Eq. 1]
Comparison of the corresponding R-functions allows us to rank the peptides Ka binding constants, assuming that the value of the ratio between signal-response factors of complexes is approximately the same or deviates only weakly from the one for corresponding free peptides.
Then, an equal concentration of both peptides was employed, while increasing the concentration of the D-lipid-A in three experiments, two of which are shown in FIGS. 17-18. Double circles surround lipid-A bound to peptide WK-11 (“1”) or lipid-A bound to KK-11 (“2”).
Resultant signal intensities of peptides and their complexes with D-lipid-A were used to plot R-ratios, determined as in Eq. 1, against D-Lipid-A concentrations, as in Example 4B.

[3] = system: THP-1 cell line; experiment: Peptides block effect of LPS in THP-1 cell line; assay type: cell-based, human; conditions: THP-1 stimulated with LPS 1 mg/mL, treated after 24 hours with peptide 0.5 mg/mL
Description: THP-1 is a human monocytic cell line derived from an acute monocytic leukemia patient. It is typically used to test immunocytochemical analysis of protein-protein interaction and immunohistochemistry. THP-1 cell line can provide continuous culture, grown in suspension, for example, RPMI 1640+10% FBS+2 mM L-glutamine. The average doubling time is 35 to 50 hrs. To inhibit bacterial growth, 1 mM sodium pyruvate, penicillin (100 units/mL) or streptomycin (100 ug/mL) can be employed. Cultures are typically maintained at between 2-9×10^5 cells/mL at 37 degrees C., and 5% CO2. The cells are generally non-adhesive.
THP-1 cell line in culture was stimulated with 1 mg/mL LPS.
In contrast, THP-1 stimulated with LPS (1 mg/mL) and then treated after 24 hours with Peptide 1 (KK-12)(SEQ ID NO: 1) (0.5 mg/mL).

Substance	binding to Lipid A (complex formation detected by ESI-MS) [1]	relative binding affinity Ka with D-Lipid-A, competition KK-12 vs KK-11 [2]	relative binding affinity Ka with D-Lipid-A, competition WK-11 vs KK-11 [2]	rank order of relative binding affinities (Ka) to D-lipid-A, combined data of Example 4 [2]	effect on LPS-stimulated THP-1 cells (cell adherence, outer membrane shape and color) [3]	relative binding affinity Ka with D-Lipid-A, competition WK-11 vs KK-12 [2]
Angiotensin (DRVYIHPFHL; Angiotensin-1; UniProt P01019 25-34, looked up) [control standard peptide with size similar to KDEON peptides, reference compound]	no sign of binding propensity to D-Lipid-A	–	–	–	–	–
KKKKFFFKFFK [KK-11]	specifically binds to Lipid A	Ka(KK-11)>Ka (KK-12)	Ka(WK-11)≧Ka(KK-11)	Ka(WK-11)≧Ka(KK-11)>Ka(KK-12)	–	–
KFFKKFFKFFKK [KK-12]	specifically binds to Lipid A	Ka(KK-11)>Ka (KK-12)	–	Ka(WK-11)≧Ka(KK-11)>Ka(KK-12)	appears to reverse the effects of LPS	Ka(WK-11)>Ka(KK-12)
WKKWWKKWWKK [WK-11]	specifically binds to Lipid A	–	Ka(WK-11)≧Ka(KK-11)	Ka(WK-11)≧Ka(KK-11)>Ka(KK-12)	–	Ka(WK-11)>Ka(KK-12)
